In patent US20240100172A1, “METHODS AND COMPOUNDS FOR TARGETED AUTOPHAGY” (Hangzhou Jijing Pharmaceutical Technology Limited, priority 2020, published 2024):
Marks after values point to notes of the source that are not given here.

Tests used:
[1] = molecular target: T1, BTK (Homo sapiens, UniProt Q06187); assay: BTK levels in NAMALWA cells (Western blot); assay type: cell-based; details: 4 hours EBSS starvation
T1 construct: endogenous in cells; host or cells: NAMALWA
Experimental: The following protocol was used to test the effect of exemplary compounds on BTK levels in NAMALWA cells.
On Day 1, NAMALWA cells were seeded in 6 well plates at concentration of 2×10^6/well and were incubated overnight. On Day 2, the cells were treated at indicated concentrations following 4 hours of starvation in Earle's Balanced Salt Solution (EBSS, Gibco, #24010-043). After compound treatment for 24 hours, cells were collected and samples were prepared. Fresh, ice cold 1×RIPA lysis buffer supplemented with protease and phosphatase inhibitors was then added to the cell samples, followed by incubation on ice for 30 minutes, and then cells samples were collected. Cell samples were then centrifuged at 4° C., 12,000 rpm for 15 minutes and the resulting supernatant was collected. Protein concentrations within the collected samples were then measured using BCA kit (Solarbio, PC0020), and the cell lysate was mixed with SDS loading buffer and heated at 100° C. for 5 minutes.
15 μg of protein from the samples prepared above was loaded in 4-12% Bis-Tris Gels in 1×MOPS buffer, and the samples were run at 120 V for 120 min. Transfer of the resulting gels was then carried out using the Transblot system with NC membrane, and the membranes were blocked with 5% BSA in TBST for 1 hr at room temperature. Membrane hybridization was then carried out overnight at 4° C. with primary antibodies (anti-BTK, Cell Signaling Technology #8547, Rabbit, 1:1000 diluted in 1% BSA in TBST), and the resulting membranes were washed with TBST for 3×10 min at RT, and then incubated with second antibodies (Goat anti-Rabbit IgG H&L, IRDye® 800CW, LI-COR, 926-32211, 1:5000 diluted in 1% BSA in TBST) in 1% BSA for 1 hr at room temperature. After washing the resulting membranes with TBST for 10 min, 3 times at room temperatures, the membranes were imaged using a Li-COR imaging system.
Table 3 below summarizes the normalized BTK levels in NAMALWA cells treated with the exemplary compounds of Examples 6-8 for 24 hours.

[2] = molecular target: T2, KRAS (Homo sapiens, UniProt P01116, G12C); assay: KRAS levels in NCI-H2030 cells (Western blot); assay type: cell-based
T2 construct: endogenous in cells; host or cells: NCI-H2030
Experimental: The following protocol was used to test the effect of exemplary compounds on KRAS levels in NCI-H2030 cells.
On Day 1, seed NCI-N2030 cells were placed into 6-well plates (3.5×10^5 cells/well/2 mL) and incubated for 24 hours. On Day 2, 6 μL compound solutions were added into testing wells in order to obtain compound concentrations of 3.33 μM and 10 μM—with DMSO concentrations of 0.3%. The wells were thoroughly agitated and incubated for 24 hours. On Day 3, the supernatant in the testing wells was discarded, and the testing wells were washed once with 1 mL of cold PBS. Then, 100 μL of RIPA buffer (Boston BioProducts BP-115D) was added to the testing wells with 1× complete protease inhibitor (Roche, #4693116001) and phosphatase inhibitor (Roche, #4906837001). The wells were then agitated by pipetting a few times, the testing plates were held on ice for 30 minutes to affect complete lysis of the cells. The cell lysate from the testing wells was then collected into EP tubes, and the tubes were spun at about 20000×g for 10 minutes at 4° C., before collecting the supernatant from the testing cells.
Protein concentrations in the collected supernatants were measured using BCA methods. The cell lysate was mixed with 5× NuPAGE SDS Loading Buffer and heated at 100° C. for 10 minutes in a heat block. Then 15 μL samples (15 μg) were loaded into 26-well SDS-PAGE gel (Novex, WXP81626BOX) and the gels were processed at 120 V for 1.5 hours, prior to electrotransfer to an NC membrane using a wet-transfer method with 250 mA for 1.5 hours. The resulting membrane was then blocked for 1 hours with LICOR blocking buffer (LI-COR, 927-70001), and was then incubated with a primary antibody 1:1000 (Anti-KRAS (LS-C175665)) that was previously prepared in block buffer at 4° C. overnight. Then, the membrane was washed three times with 1×TBST for 5 minutes each washing, and the membrane was incubated with a secondary antibody GAM 1:5000 (anti-mouse IgG (LI-COR, 926-68070)) for 1 hour at room temperature. The membrane was then washed three times with 1×TBST for 5 minutes each washing, and the membrane was read on LiCOR.
Table 2 below summarizes the normalized KRAS levels in NCI-H2030 cells that were treated with the exemplary compounds of Examples 1-3 for 24 hours.

T1 sequence (Q06187 whole entry): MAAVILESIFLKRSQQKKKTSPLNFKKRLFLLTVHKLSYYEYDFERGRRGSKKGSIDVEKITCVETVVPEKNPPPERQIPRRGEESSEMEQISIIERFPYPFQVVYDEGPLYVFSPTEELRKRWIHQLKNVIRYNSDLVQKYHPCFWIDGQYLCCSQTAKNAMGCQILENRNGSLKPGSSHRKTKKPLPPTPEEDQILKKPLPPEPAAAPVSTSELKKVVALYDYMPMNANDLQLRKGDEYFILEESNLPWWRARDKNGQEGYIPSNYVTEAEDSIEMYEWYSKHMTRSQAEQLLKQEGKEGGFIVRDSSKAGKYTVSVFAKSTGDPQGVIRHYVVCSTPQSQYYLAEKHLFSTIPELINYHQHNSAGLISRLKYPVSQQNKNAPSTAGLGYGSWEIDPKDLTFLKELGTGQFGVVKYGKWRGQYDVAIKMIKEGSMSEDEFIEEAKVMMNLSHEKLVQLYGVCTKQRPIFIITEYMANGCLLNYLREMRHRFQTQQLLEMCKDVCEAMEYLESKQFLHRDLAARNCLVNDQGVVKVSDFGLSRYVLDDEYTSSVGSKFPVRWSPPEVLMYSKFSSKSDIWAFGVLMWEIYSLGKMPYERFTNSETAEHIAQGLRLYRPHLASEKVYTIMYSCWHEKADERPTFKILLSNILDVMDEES

## Nc1ncnc2c1c(-c1ccc(Oc3ccccc3)cc1)nn2C1CCN(CCOCCOCCOCCOCCN2C(=O)C(=Cc3cc(Br)c(O)c(Br)c3)c3cc(I)ccc32)CC1.O=CO [Example 6, 1-(14-(4-(4-amino-3-(4-phenoxyphenyl)-1H-pyrazolo[3,4-d]pyrimidin-1-yl)piperidin-1-yl)-3,6,9,12-tetraoxatetradecyl)-3-(3,5-dibromo-4-hydroxybenzylidene)-5-iodo indolin-2-one formate]
[1]; 10 μM column, footnote: tested at 11.1 uM from 100 uM top concentration
  Normalized BTK levels in NAMALWA cells treated with Compounds for 24 hours after 4 hours of starvation in EBSS: ~58.7%*
[1]; 30 μM column, footnote: tested at 33.3 uM from 100 uM top concentration
  Normalized BTK levels in NAMALWA cells treated with Compounds for 24 hours after 4 hours of starvation in EBSS: ~30.1%*

## Nc1ncnc2c1c(-c1ccc(Oc3ccccc3)cc1)nn2C1CCN(CCOCCOCCOCCN/C(=C2\C(=O)Nc3ccc(Br)cc32)c2cccc(O)c2)CC1.O=CO [Example 7, (3Z)-3-[[2-[2-[2-[2-[4-[4-amino-3-(4-phenoxyphenyl)pyrazolo[3,4-d]pyrimidin-1-yl]-1-piperidyl]ethoxy]ethoxy]ethoxy]ethylamino]-(3-hydroxyphenyl)methylene]-5-bromo-indolin-2-one formate]
[1]; 3.33 μM compound concentration
  Normalized BTK levels in NAMALWA cells treated with Compounds for 24 hours after 4 hours of starvation in EBSS: 67.0%
[1]; 10 μM compound concentration
  Normalized BTK levels in NAMALWA cells treated with Compounds for 24 hours after 4 hours of starvation in EBSS: 48.2%

## C=C(F)C(=O)N1CCN(c2nc(OC[C@@H]3CCCN3CCCOCCOCCOCCOc3c(Br)cc(C=C4C(=O)Nc5ccc(I)cc54)cc3Br)nc3c2CCN(c2cccc4cccc(Cl)c24)C3)C[C@@H]1CC#N [Example 1, 2-((S)-4-(7-(8-chloronaphthalen-1-yl)-2-(((S)-1-(3-(2-(2-(2-(2,6-dibromo-4-((5-iodo-2-oxoindolin-3-ylidene)methyl)phenoxy)ethoxy)ethoxy)ethoxy)propyl)pyrrolidin-2-yl)methoxy)-5,6,7,8-tetrahydropyrido[3,4-d]pyrimidin-4-yl)-1-(2-fluoroacryloyl)piperazin-2-yl)acetonitrile]
[2]; 3.33 μM compound concentration
  Normalized KRAS levels in NCI-H2030 cells treated with Compounds for 24 hours: 84.9%
[2]; 10 μM compound concentration
  Normalized KRAS levels in NCI-H2030 cells treated with Compounds for 24 hours: 87.5%

## C=C(F)C(=O)N1CCN(c2nc(OC[C@@H]3CCCN3CCCOCCOCCOc3c(Br)cc(C=C4C(=O)Nc5ccc(I)cc54)cc3Br)nc3c2CCN(c2cccc4cccc(Cl)c24)C3)C[C@@H]1CC#N [Example 3, 2-((S)-4-(7-(8-chloronaphthalen-1-yl)-2-(((S)-1-(3-(2-(2-(2,6-dibromo-4-((5-iodo-2-oxoindolin-3-ylidene)methyl)phenoxy)ethoxy)ethoxy)propyl)pyrrolidin-2-yl)methoxy)-5,6,7,8-tetrahydropyrido[3,4-d]pyrimidin-4-yl)-1-(2-fluoroacryloyl)piperazin-2-yl)acetonitrile]
[2]; 3.33 μM compound concentration
  Normalized KRAS levels in NCI-H2030 cells treated with Compounds for 24 hours: 63.0%
[2]; 10 μM compound concentration
  Normalized KRAS levels in NCI-H2030 cells treated with Compounds for 24 hours: 65.7%

## Nc1ncnc2c1c(-c1ccc(Oc3ccccc3)cc1)nn2C1CCN(CCOCCOCCN/C(=C2\C(=O)Nc3ccc(Br)cc32)c2cccc(O)c2)CC1 [Example 8, (3Z)-3-[[2-[2-[2-[4-[4-amino-3-(4-phenoxyphenyl)pyrazolo[3,4-d]pyrimidin-1-yl]-1-piperidyl]ethoxy]ethoxy]ethylamino]-(3-hydroxyphenyl)methylene]-5-bromo-indolin-2-one]
[1]; 3.33 μM compound concentration
  Normalized BTK levels in NAMALWA cells treated with Compounds for 24 hours after 4 hours of starvation in EBSS: 83.1%
[1]; 10 μM compound concentration
  Normalized BTK levels in NAMALWA cells treated with Compounds for 24 hours after 4 hours of starvation in EBSS: 66.3%

## C=C(F)C(=O)N1CCN(c2nc(OC[C@@H]3CCCN3CCCOCCOc3c(Br)cc(C=C4C(=O)Nc5ccc(I)cc54)cc3Br)nc3c2CCN(c2cccc4cccc(Cl)c24)C3)C[C@@H]1CC#N [Example 2, 2-((S)-4-(7-(8-chloronaphthalen-1-yl)-2-(((S)-1-(3-(2-(2,6-dibromo-4-((5-iodo-2-oxoindolin-3-ylidene)methyl)phenoxy)ethoxy)propyl)pyrrolidin-2-yl)methoxy)-5,6,7,8-tetrahydropyrido[3,4-d]pyrimidin-4-yl)-1-(2-fluoroacryloyl)piperazin-2-yl)acetonitrile]
[2]; 3.33 μM compound concentration
  Normalized KRAS levels in NCI-H2030 cells treated with Compounds for 24 hours: 45.1%
[2]; 10 μM compound concentration
  Normalized KRAS levels in NCI-H2030 cells treated with Compounds for 24 hours: 48.6%
